Patent US20230310387A1, “Reduced Dose Metaxalone Formulations” (Primus Pharmaceuticals, Inc., priority 2023, published 2023)

Assays:
[1] = Particle Size Analysis by Malvern Method; format: physicochemical; details: micronized metaxalone
Description: In one subembodiment, when the formulation is characterized based on metaxalone particle size, at least 50%, 70%, or 90% of the micronized particles of metaxalone are smaller than 200, 100, or 75 microns when tested according to the Malvern Method (i.e. laser diffraction). Alternatively or in addition, at least 30%, 40%, or 50% of the micronized particles are less than 50, 30, or 20 microns. when tested according to the Malvern Method. Tables 2a and 2b describes representative particle sizes for the micronized and non-micronized metaxalone particles used in the formulation of Table 1. [table]

[2] = Particle Size Analysis by Sieve Method; format: physicochemical; details: non-micronized metaxalone
Description: The Sieve Method refers to the method for particle size analysis described in American Society for Testing and Materials (ASTM) standard C 136 (in effect on Jan. 1, 2019). In the method a representative weighed sample is poured into the top sieve which has the largest screen openings. Each lower sieve in the column has smaller openings than the one above. At the base is a round pan, called the receiver. The column is typically placed in a mechanical shaker. such as the sonic sifter available from Endecotts (London, UK). See Endecotts website at https://www.endecotts.com/products/sieve-shakers/sonic-sifter/product-specifications/. The shaker shakes the column, usually for some fixed amount of time. After the shaking is complete the material on each sieve is weighed. The mass of the sample of each sieve is then divided by the total mass to give a percentage retained on each sieve. The size of the average particle on each sieve is then analyzed to get a cut-off point or specific size range, which is then captured on a screen. Tables 2a and 2b describes representative particle sizes for the micronized and non-micronized metaxalone particles used in the formulation of Table 1. [table]

SMILES	10% of the Particles (d10) [1]	50% of the Particles (d50) [1]	90% of the Particles (d90) [1]	% Retained on Sieve # 30 [2]	% Retained on Sieve # 120 [2]	% Retained on Sieve # 325 [2]
Cc1cc(C)cc(OCC2CNC(=O)O2)c1 (stereo not drawn) [Lot2a, metaxalone]	0.81 µ	10.11 µ	49.91 µ			
Cc1cc(C)cc(OCC2CNC(=O)O2)c1 (single isomer, unassigned) [Lot2c, metaxalone]				1%	63%	29%
Cc1cc(C)cc(OCC2CNC(=O)O2)c1 (single isomer, unassigned) [Lot2b, metaxalone]				1%	49%	30%
Cc1cc(C)cc(OCC2CNC(=O)O2)c1 (single isomer, unassigned) [Lot2d, metaxalone]				1%	61%	28%
